Results on one molecule are retold here after paper PMC9046208, “Foldamers reveal and validate therapeutic targets associated with toxic α-synuclein self-assembly” (Nature Communications, 2022).

The target of experiment [1] is T1, αS1 seed-catalyzed aggregation (Homo sapiens, UniProt P37840, DEL6-12).
T1 construct: made in house; host or cells: Escherichia coli BL21(DE3)
Put plainly: Seed-catalyzed ThT aggregation assay (10% WT αS seeds), αS1. In kind it is biochemical. The note with it: αS1, equimolar ratio. As to the method:
Seed-catalyzed αS aggregation assay was performed similarly to a previously described protocol. Briefly, 100 μM monomeric WT αS solution (200 μL, in 1x PBS buffer) was placed into a ThermoMixer (Eppendorf, Hamberg, Germany) and shook for five days at a rate of […] and 37 °C. The solution was sonicated for 10 min and used as αS seeds. The seed-catalyzed aggregation of WT αS/ αS variants was performed by adding αS seeds (10% seeds, αS in monomeric concentration, v/v) into 140 μL of fresh 100 μM WT αS/ αS variants solution and aggregation was started with constant shaking at a rate of […] and 37 °C. The aggregation of proteins was monitored at the indicated times (See the main manuscript) using the above-mentioned method.
The ThT aggregation assay for each protein (WT αS and αS variants) in the presence of SK-129 was carried out the above-mentioned method. SK-129 (from 10 mM stock solution in DMSO) was added at an equimolar ratio (1% DMSO, v/v) to the proteins at the start of the aggregation experiment. The concentration of DMSO was kept constant (1%, v/v) in protein (WT αS and αS variants), control, and protein+molecule solutions. The kinetic profiles of protein aggregation were processed using OriginPro software (Version 9.1). Kinetic curves were fit using a built-in sigmoidal fit in the OriginLab.

For another experiment, the target named is T2, αS aggregation (Homo sapiens, UniProt P37840).
T2 construct: made in house; host or cells: Escherichia coli BL21(DE3), periplasm
Description: SDS-PAGE analysis of soluble and insoluble αS fractions. The note with it: 100 µM αS, equimolar SK-129, four days. In kind it is biochemical. As to the method: The solution of αS (100 µM) in the absence and presence of SK-129 were prepared in the aggregation buffer (20 mM NaCl, 20 mM NaPi, pH 6.5) and kept at 37 °C and constant shaking at 1200 rpm until the aggregation of αS plateaued (four days). The solutions were separated into soluble and insoluble fractions of αS by centrifugation at 22,000 × g for 20 min. Afterwards, 2 x Laemmli protein sample loading buffer (Biorad, Hercules, CA) was added to the fractions and boiled at 95 °C for 5 min and ran on a 12% Mini-PROTEAN precast protein gel (Biorad, Hercules, CA). In addition, we also quantified SDS-PAGE gel band intensities using ImageJ software. The gel-based experiments were repeated three times (n = 3) independently to ensure the reproducibility of the data. All the uncropped gels (from Main manuscript and Supplementary Figures) have been included in the Supplementary Data File as Supplementary Fig. 29.

Experiment [2] has as its system primary rat hippocampal neurons. Description: LDH release assay, primary rat hippocampal neurons. In kind it is cell-based. The note with it: PD + SK-129 PMCA sample, 21 days; PD sample ~8-fold higher than control. As to the method: The rat embryos (both male and female) at embryonic day 18 were used to prepare the primary neurons according to previously published protocol. After removing all the meninges, the hippocampi were isolated from the fetal rat brain and kept in the dissection solution (1x HBSS, 10 mM HEPES buffer, 5 µg/mL Gentamicin, pH 7.3, Thermo Fisher Scientific, Waltham, MA). The hippocampi were minced and treated in the dissection solution containing 20 U/ml Papain (Worthington Biochemical Corp., Lakewood, NJ) and triturated in 50 µg/ml Dnase I (Sigma-Aldrich, St.Louis, MO). The isolated cells were plated on 1 mg/mL Poly-L-Lysine (Sigma-Aldrich, St.Louis, MO) coated μ-slide eight-well plate (Ibidi, Munich, Germany) at 200,000 cells/mL in neuron plating medium, which includes Minimum Essential Media (MEM)(Thermo Fisher Scientific, Waltham, MA) supplemented with 5% FBS (Thermo Fisher Scientific, Waltham, MA) and glucose (Sigma-Aldrich, St.Louis, MO). […]
The LDH assay was performed on the primary neurons treated with various conditions and incubated for 21 DIV. The release of LDH was measured using a Cytotox 96 Non-Radioactive Cytotoxicity Assay kit (Promega, Madison, WI) by following the instructions provided by the manufacturers. […] The absorbance of the media in the wells was measured at 490 nm using a 96-well plate reader.
On the technique in general: LDH in the medium is a marker of cell lysis.

As for `COC(=O)c1cc(OCC(=O)O)c2cccc(NC(=O)c3cc(OC(C)C)c4cccc(NC(=O)c5cc(OCC(=O)O)c6cccc(NC(=O)c7cc(OC(C)C)c8cccc([N+](=O)[O-])c8n7)c6n5)c4n3)c2n1` [SK-129], the “effect on seed-catalyzed aggregation” value in experiment [1] is given as “wholly suppressed”. In addition, the “αS fraction detected by SDS-PAGE” value on αS aggregation was “predominantly detected in the soluble fraction”. The “neurotoxicity (LDH release)” value in experiment [2] is on record as “did not observe any significant neurotoxicity”.
